Measured values taken from the supplement of paper PMC10307832.

Legend:
Assay in all cases: relative viability (nuclei count vs DMSO), 5 days (fraction); higher = more cells survive
[1] = tested on: A549
Method in brief: (§1)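 Relative viability was taken as the ratio of nuclei in treated wells to nuclei in vehicle wells. Lung cancer cell lines in 1536-well plates received compounds by pin tool one day after seeding, either one drug alone or a fixed anchor-drug dose plus five library-drug doses (not always all listed) in √10 steps. Nuclei were counted on 4× images after 5 days of treatment, and values are medians of duplicate plates.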

[2] = tested on: Calu-6
Method in brief: as §1

[3] = tested on: EBC-1
Method in brief: as §1

[4] = tested on: HCC-366
Method in brief: as §1

[5] = tested on: HCC-44
Method in brief: as §1

[6] = tested on: IA-LM
Method in brief: as §1

[7] = tested on: LOU-NH91
Method in brief: as §1

[8] = tested on: LXF-289
Method in brief: as §1

[9] = tested on: NCI-H1299
Method in brief: as §1

[10] = tested on: NCI-H1437
Method in brief: as §1

[11] = tested on: NCI-H1703
Method in brief: as §1

[12] = tested on: NCI-H2085
Method in brief: as §1

[13] = tested on: NCI-H3122
Method in brief: as §1

CC(=O)O[C@@]12CO[C@@H]1C[C@H](O)[C@@]1(C)C(=O)[C@H](O)C3=C(C)[C@@H](OC(=O)[C@H](O)[C@@H](NC(=O)OC(C)(C)C)c4ccccc4)C[C@@](O)([C@@H](OC(=O)c4ccccc4)[C@H]21)C3(C)C [Docetaxel] + Cc1nc(NC(=O)N2CCC[C@H]2C(N)=O)sc1-c1ccnc(C(C)(C)C(F)(F)F)c1 [Alpelisib] (partner 2 µM)
relative viability ([1]; first compound 0.0002 µM): 0.752
relative viability ([1]; first compound 0.000632 µM): 0.668
relative viability ([1]; first compound 0.002 µM): 0.0866
relative viability ([1]; first compound 0.006325 µM): 0.0749
relative viability ([1]; first compound 0.02 µM): 0.034
relative viability ([2]; first compound 0.0002 µM): 1.03
relative viability ([2]; first compound 0.000632 µM): 0.99
relative viability ([2]; first compound 0.002 µM): 0.432
relative viability ([2]; first compound 0.006325 µM): 0.147
relative viability ([2]; first compound 0.02 µM): 0.115
relative viability ([3]; first compound 0.0002 µM): 0.797
relative viability ([3]; first compound 0.000632 µM): 0.576
relative viability ([3]; first compound 0.002 µM): 0.275
relative viability ([3]; first compound 0.006325 µM): 0.267
relative viability ([3]; first compound 0.02 µM): 0.174
relative viability ([4]; first compound 0.0002 µM): 0.331
relative viability ([4]; first compound 0.000632 µM): 0.311
relative viability ([4]; first compound 0.002 µM): 0.0519
relative viability ([4]; first compound 0.006325 µM): 0.0149
relative viability ([4]; first compound 0.02 µM): 0.0109
relative viability ([5]; first compound 0.0002 µM): 0.758
relative viability ([5]; first compound 0.000632 µM): 0.711
relative viability ([5]; first compound 0.002 µM): 0.609
relative viability ([5]; first compound 0.006325 µM): 0.149
relative viability ([5]; first compound 0.02 µM): 0.0751
relative viability ([6]; first compound 0.0002 µM): 0.595
relative viability ([6]; first compound 0.000632 µM): 0.232
relative viability ([6]; first compound 0.002 µM): 0.116
relative viability ([6]; first compound 0.006325 µM): 0.0821
relative viability ([6]; first compound 0.02 µM): 0.0716
relative viability ([7]; first compound 0.0002 µM): 0.73
relative viability ([7]; first compound 0.000632 µM): 0.737
relative viability ([7]; first compound 0.002 µM): 0.565
relative viability ([7]; first compound 0.006325 µM): 0.394
relative viability ([7]; first compound 0.02 µM): 0.368
relative viability ([8]; first compound 0.0002 µM): 1.09
relative viability ([8]; first compound 0.000632 µM): 0.577
relative viability ([8]; first compound 0.002 µM): 0.59
relative viability ([8]; first compound 0.006325 µM): 0.119
relative viability ([8]; first compound 0.02 µM): 0.0912
relative viability ([9]; first compound 0.0002 µM): 1.05
relative viability ([9]; first compound 0.000632 µM): 1.06
relative viability ([9]; first compound 0.002 µM): 1.01
relative viability ([9]; first compound 0.006325 µM): 0.605
relative viability ([9]; first compound 0.02 µM): 0.431
relative viability ([10]; first compound 0.0002 µM): 0.888
relative viability ([10]; first compound 0.000632 µM): 0.759
relative viability ([10]; first compound 0.002 µM): 0.156
relative viability ([10]; first compound 0.006325 µM): 0.124
relative viability ([10]; first compound 0.02 µM): 0.0738
relative viability ([11]; first compound 0.0002 µM): 0.406
relative viability ([11]; first compound 0.000632 µM): 0.442
relative viability ([11]; first compound 0.006325 µM): 0.125
relative viability ([11]; first compound 0.02 µM): 0.109
relative viability ([12]; first compound 0.0002 µM): 0.93
relative viability ([12]; first compound 0.000632 µM): 0.905
relative viability ([12]; first compound 0.002 µM): 0.697
relative viability ([12]; first compound 0.006325 µM): 0.609
relative viability ([12]; first compound 0.02 µM): 0.378
relative viability ([13]; first compound 0.0002 µM): 0.719
relative viability ([13]; first compound 0.000632 µM): 0.753
relative viability ([13]; first compound 0.002 µM): 0.764
relative viability ([13]; first compound 0.006325 µM): 0.318
relative viability ([13]; first compound 0.02 µM): 0.186
